Test: Log P
Conditions: Log P (min), Table I

| Compound | chromatographic logP |
| --- | --- |
| CC(C)(N)C(=O)N[C@H](Cc1c[nH]c2ccccc12)C(=O)N1CCCC(N(c2ccccc2)S(=O)(=O)c2ccccc2)C1 (single isomer, unassigned) [3b] | 3.2 |
| CC(C)(N)C(=O)N[C@H](Cc1c[nH]c2ccccc12)C(=O)N1CCCC(N(Cc2ccccc2)S(=O)(=O)c2ccccc2)C1 (some centres unmarked) [3a] | 3.6 |
